The text below walks through data of patent publication US8697694B2, “Substituted pyridine and pyrimidine derivatives and their use in treating viral infections” (priority 2008, dated 2014).

Bounds are passed on as bounds.

In one test the test system is HCV replicon cells. The test can be described thus: Cell-based HCV replicon assay (replicon RNA level by real time PCR, Taqman). Particulars: Hepatitis C virus, 72 h, HCV replicon cells, harvested day 3, replicon RNA by real time PCR; given as number; read-out: EC90 (μM) range. The gist of the method:
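HCV replicon cells treated 3 days with 10 serial 2-fold compound dilutions (top 25 μM to 1 μM; 0.5% DMSO, 10% FBS). Replicon RNA quantified by multiplex Taqman RT-PCR (NS5B amplicon, GAPDH control); EC50 and EC90 = concentrations giving ΔCT of 1 and 3.2 over baseline.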
On the technique in general: Replicon systems follow genome replication, usually without infectious particles.
As to `CCOc1cc2cc(-c3c(C)nc(NCc4c(F)cccc4F)nc3N[C@@H]3C[C@H](CO)[C@@H](O)[C@H]3O)oc2c(C)n1` [Example 50], the EC90 came to 0.05 µM.
With `CCCOc1cc2cc(-c3c(C)nc(NCC4CC4)nc3N[C@@H]3C[C@H](CO)[C@@H](O)[C@H]3O)oc2c(C)n1` [Example 38], the EC90 was determined as 0.25 µM.
Same read-out and setting: next, `CCOc1cc2cc(-c3c(C)nc(N[C@H](C)c4ccc(C)cc4)nc3N[C@@H]3C[C@H](CO)[C@@H](O)[C@H]3O)oc2c(C)n1` [Example 40]: 0.15 µM; `Cc1nc(NCC(F)(F)F)nc(N[C@H]2C[C@H](O)[C@@H]3C[C@@H]32)c1-c1nc2ccccc2s1` [Example 53]: 2.1 µM.
As for `COCCNc1nc(C)c(-c2cc3cc(OC)ncc3o2)c(N[C@@H]2C[C@H](CO)[C@@H](O)[C@H]2O)n1` [Example 25], the EC90 came to 0.8 µM.

Still in this test, the particulars now being: Hepatitis C virus, 72 h, HCV replicon cells, harvested day 3, replicon RNA by real time PCR; reported as range class; read-out: EC90 (μM) range.
Regarding `Nc1nc(Cl)c(-c2cscn2)c(N[C@@H]2C[C@H](CO)[C@@H](O)[C@H]2O)n1` [Example 161], the EC90 is above 5 µM.
Still for that read-out and setting: next, `CCc1cc2cc(-c3c(Cl)nc(N)nc3N[C@@H]3C[C@H](CO)[C@@H](O)[C@H]3O)oc2c(C)n1` [Example 309]: below 0.5 µM; `OC[C@H]1C[C@@H](Nc2nc(NCCCC(F)(F)F)nc(Cl)c2-c2nc3ccccc3s2)[C@H](O)[C@@H]1O` [Example 224]: below 0.5 µM.
In the case of `CCNc1nc(Cl)c(-c2nc3ccccc3s2)c(N[C@@H]2C[C@H](CO)[C@@H](O)[C@H]2O)n1` [Example 412], the EC90 was below 0.5 µM.
`CCOCCNc1nc(Cl)c(-c2nc3ccccc3s2)c(N[C@@H]2C[C@H](CO)[C@@H](O)[C@H]2O)n1` [Example 206]: the EC90 is below 0.5 µM.
On to `CCOCCNc1nc(C)c(-c2nc3ccccc3s2)c(N[C@@H]2C[C@H](CO)[C@@H](O)[C@H]2O)n1` [Example 208], for which the EC90 was below 0.5 µM.
Take `CCOc1cc2cc(-c3c(C)nc(NCCOC)nc3N[C@@H]3C[C@H](CO)[C@@H](O)[C@H]3O)oc2c(C)n1` [Example 31]: the EC90 was below 0.5 µM.
`CNc1nc(C)c(-c2nc3ccccc3s2)c(N[C@@H]2C[C@H](CO)[C@@H](O)[C@H]2O)n1` [Example 319]: the EC90 was below 0.5 µM.
Consider `Nc1nc(Cl)c(-c2ccccc2)c(N[C@@H]2C[C@H](CO)[C@@H](O)[C@H]2O)n1` [Example 5], for which the EC90 is above 5 µM.
Same read-out and setting: then `CC1(C)O[C@@H]2[C@@H](CO)C[C@@H](Nc3nc(N)nc(-c4nc5c(F)cc(F)cc5s4)c3-c3nc4c(F)cc(F)cc4s3)[C@@H]2O1` [Example 185], with above 5 µM.

The test is the same for the next values; noted with them: Hepatitis C virus, 72 h, HCV replicon cells, harvested on day 3, replicon RNA by real time PCR; calculated EC90 reported as range class; read-out: EC90 (μM) range.
As to `COC(C)(C)CNc1nc(C)c(-c2nc3ccccc3s2)c(N[C@@H]2C[C@H](CO)[C@H]3OC(C)(C)O[C@H]32)n1` [Example 471], the EC90 is below 0.5 µM.
Regarding `CCCNc1nc(Cl)c(-c2nc3ccccc3s2)c(N[C@@H]2C[C@H](CO)[C@@H](O)[C@H]2O)n1` [Example 419], the EC90 is below 0.5 µM.
Consider `CCc1cc2cc(-c3c(C)nc(NCc4cc(OC)cc(OC)c4)nc3N[C@@H]3C[C@H](CO)[C@@H](O)[C@H]3O)oc2cn1` [Example 346], for which the EC90 was below 0.5 µM.
As to `CCCCCNc1nc(C)c(-c2nc3ccccc3s2)c(N[C@@H]2C[C@H](CO)[C@@H](O)[C@H]2O)n1` [Example 435], the EC90 is below 0.5 µM.
Take `OC[C@H]1C[C@@H](Nc2nc(NCc3ccc(F)cc3)nc(Cl)c2-c2nc3ccccc3s2)[C@H](O)[C@@H]1O` [Example 251]: the EC90 is below 0.5 µM.
As for `C[C@H](Nc1nc(Cl)c(-c2nc3ccccc3s2)c(N[C@@H]2C[C@H](CO)[C@@H](O)[C@H]2O)n1)C(F)(F)F` [Example 131], the EC90 was below 0.5 µM.
With `CCc1cc2cc(-c3c(C)nc(NCC4CC4)nc3N[C@@H]3C[C@H](CO)[C@@H](O)[C@H]3O)oc2cn1` [Example 509], the EC90 is below 0.5 µM.
Turning to `Cc1nc(NCc2ccncc2)nc(N[C@@H]2C[C@H](CO)[C@H]3OC(C)(C)O[C@H]32)c1-c1nc2ccccc2s1` [Example 464], the EC90 was below 0.5 µM.
As for `COC[C@H](C)Nc1nc(Cl)c(-c2nc3ccccc3s2)c(N[C@@H]2C[C@H](CO)[C@@H](O)[C@H]2O)n1` [Example 438], the EC90 is below 0.5 µM.
As to `COc1cc(CNc2nc(C)c(-c3cc4cc(OC)nc(C)c4o3)c(N[C@@H]3C[C@H](CO)[C@H]4OC(C)(C)O[C@H]43)n2)cc(OC)c1` [Example 347], the EC90 is below 0.5 µM.
Turning to `CCCCCNc1nc(Cl)c(-c2cc3cc(CCC)nc(C)c3o2)c(N[C@@H]2C[C@H](CO)[C@@H](O)[C@H]2O)n1` [Example 446], the EC90 is below 0.5 µM.
As for `COc1cc(CNc2nc(C)c(-c3nc4ccccc4s3)c(N[C@@H]3C[C@H](CO)[C@H]4OC(C)(C)O[C@H]43)n2)cc(OC)c1` [Example 500], the EC90 was below 0.5 µM.
In the case of `CCc1cc2cc(-c3c(Cl)nc(NCC(F)(F)F)nc3N[C@@H]3C[C@H](CO)[C@@H](O)[C@H]3O)oc2cn1` [Example 516], the EC90 is below 0.5 µM.
Take `COc1ccc(CNc2nc(C)c(-c3nc4ccccc4s3)c(N[C@@H]3C[C@H](CO)[C@H]4OC(C)(C)O[C@H]43)n2)cc1OC` [Example 708]: the EC90 is below 0.5 µM.
For `Cc1nc(NC(C)(C)C)nc(N[C@@H]2C[C@H](CO)[C@@H](O)[C@H]2O)c1-c1nc2ccccc2s1` [Example 429], the EC90 is below 0.5 µM.
As for `Cc1nc(NCCc2ccccc2)nc(N[C@@H]2C[C@H](CO)[C@@H](O)[C@H]2O)c1-c1nc2ccccc2s1` [Example 445], the EC90 is below 0.5 µM.
Still for that read-out and setting: next, `Cc1csc(CNc2nc(C)c(-c3nc4ccccc4s3)c(N[C@@H]3C[C@H](CO)[C@@H](O)[C@H]3O)n2)c1` [Example 480]: below 0.5 µM.

The test is the same for the next values; noted with them: Hepatitis C virus, 72 h, HCV replicon cells, replicon RNA level by real time PCR (Taqman), day 3; calculated EC90; read-out: EC90 (μM) range.
For `Cc1ccc([C@H](Nc2nc(C)c(-c3nc4ccccc4s3)c(N[C@@H]3C[C@H](CO)[C@H]4OC(C)(C)O[C@H]43)n2)C(F)(F)F)cc1` [Example 2004], the concentration for an effect of 90% (EC90) was 0.5 to 5 µM.
For `Cc1nc(NCC2CC2)nc(N[C@@H]2C[C@H](CO)[C@@H](O)[C@H]2O)c1-c1nc2cnccc2o1` [Example 2003], the EC90 was 0.5 to 5 µM.

Still in this test, the particulars now being: Hepatitis C virus, 72 h, HCV replicon cells, replicon RNA level by real time PCR (Taqman), harvested on day 3; calculated EC90 reported as range class; read-out: EC90 (μM) range.
`COc1cc(Nc2nc(C)c(-c3nc4ccccc4s3)c(N[C@@H]3C[C@H](CO)[C@@H](O)[C@H]3O)n2)cc(OC)c1` [Example 1230]: the EC90 is above 5 µM.
`Cc1nc(N(C)C)nc(N[C@@H]2C[C@H](CO)[C@@H](O)[C@H]2O)c1-c1nc2cnccc2s1` [Example 533]: the EC90 was above 5 µM.
With `Cc1nc(Nc2ccccc2)nc(N[C@@H]2C[C@H](CO)[C@@H](O)[C@H]2O)c1-c1nc2ccccc2s1` [Example 1007], the EC90 was 0.5 to 5 µM.
With `Cc1nc(N[C@H](C)c2ccccc2)nc(N[C@@H]2C[C@H](CO)[C@@H](O)[C@H]2O)c1-c1nc2cnccc2s1` [Example 543], the EC90 was below 0.5 µM.
In the case of `[2H]C([2H])(Nc1nc(C)c(-c2nc3ccccc3s2)c(N[C@@H]2C[C@H](CO)[C@@H](O)[C@H]2O)n1)c1cc(OC)cc(OC)c1` [Example 1244], the EC90 was below 0.5 µM.
As to `CCOCCCCNc1nc(C)c(-c2nc3ccccc3s2)c(N[C@@H]2C[C@H](CO)[C@@H](O)[C@H]2O)n1` [Example 1052], the EC90 was below 0.5 µM.
On the same count and under the same terms, next, `Cc1nc(N[C@@H]2CCc3ccccc32)nc(N[C@@H]2C[C@H](CO)[C@@H](O)[C@H]2O)c1-c1nc2cnccc2s1` [Example 1312]: 0.5 to 5 µM.

Staying with this test, now noted: Hepatitis C virus, 72 h, HCV replicon cells, replicon RNA level by real time PCR, harvested day 3; read-out: EC90 (μM) range.
As to `Cc1nc(NCC(O)c2ccccc2)nc(N[C@@H]2C[C@H](CO)[C@@H](O)[C@H]2O)c1-c1nc2cnccc2s1` (some centres unmarked) [Example 1918], the EC90 was below 0.5 µM.
Take `CCS(=O)(=O)NC[C@H]1C[C@@H](Nc2nc(NCC(F)(F)F)nc(C)c2-c2nc3ccccc3s2)[C@H](O)[C@@H]1O` [Example 1521]: the EC90 is 0.5 to 5 µM.
Regarding `Cc1nc(N[C@H](C)c2ccc(OC(F)(F)F)cc2)nc(N[C@@H]2C[C@H](C(C)O)[C@@H](O)[C@H]2O)c1-c1nc2ccccc2s1` (single isomer, unassigned) [Example 1645], the EC90 lay in the range of 0.5 to 5 µM.
As for `Cc1nc(NCC(F)(F)F)nc(N[C@@H]2C[C@@H](CN(CC3CC3)S(C)(=O)=O)[C@@H](O)[C@H]2O)c1-c1nc2ccccc2s1` [Example 1394], the EC90 is 0.5 to 5 µM.
Regarding `Cc1nc(NCc2c(F)cccc2F)nc(N[C@@H]2C[C@H](CO)[C@@H](O)[C@H]2O)c1-c1nc2cnccc2s1` [Example 1804], the EC90 was below 0.5 µM.
Consider `CC(=O)C1=C[C@@H](O)[C@H](Nc2nc(NCC(F)(F)F)nc(C)c2-c2nc3ccccc3s2)C1` [Example 1636], for which the EC90 is below 0.5 µM.
The same measure, in the same setting: then `Cc1nc(N[C@H](C)c2ccc(OC(F)(F)F)cc2)nc(N[C@@H]2C[C@H](CO)[C@@H](O)[C@H]2O)c1-c1nc2c(C3CC3)nccc2s1` [Example 1401], with below 0.5 µM.
As to `Cc1nc(N[C@H](C)C2CC2)nc(N[C@@H]2C[C@H](C(C)O)[C@@H](O)[C@H]2O)c1-c1nc2cnccc2s1` (some centres unmarked) [Example 1642], the 90% effect concentration (EC90) was below 0.5 µM.
On the same count and under the same terms, next, `CCCc1nccc2sc(-c3c(C)nc(N[C@H](C)C4CC4)nc3N[C@@H]3C[C@H](CS(C)(=O)=O)[C@@H](O)[C@H]3O)nc12` [Example 1381]: below 0.5 µM; `Cc1nc(NCC(F)(F)F)nc(N[C@@H]2C[C@H](CS(C)(=O)=O)[C@@H](O)[C@H]2O)c1-c1nc2ccccc2s1` [Example 1357]: below 0.5 µM; `Cc1nc(NCC(F)(F)F)nc(N[C@@H]2C[C@H](CN3CCOC3=O)[C@@H](O)[C@H]2O)c1-c1nc2ccccc2s1` [Example 1400]: below 0.5 µM.
Turning to `CCNC(=O)OC[C@H]1C[C@@H](Nc2nc(NCC(F)(F)F)nc(C)c2-c2nc3ccccc3s2)[C@H](O)[C@@H]1O` [Example 1628], the EC90 is below 0.5 µM.

The EC90 is the point of the concentration-response curve where the effect stands at 90%.
